The NIST ThermoML archive (doi:10.1016/j.jct.2011.01.014)

Test: xn = mol fraction of the nth substance listed
Settings: 101 kPa, Liquid; for speed of sound: sound velocity cell; for mass density: Vibrating tube method

CC(=O)[O-].[NH3+]CCO [2-hydroxyethylammonium acetate] + CO
Settings | mass density [kg/m3] | speed of sound [m/s]
305.65 K, x1 = 0.0492 | – | 1161.1
305.65 K, x1 = 0.0951 | – | 1224.5
305.65 K, x1 = 0.1987 | – | 1341
305.65 K, x1 = 0.29 | – | 1429.3
305.65 K, x1 = 0.3786 | – | 1500.3
305.65 K, x1 = 0.4825 | – | 1575.7
305.65 K, x1 = 0.6007 | – | 1645.1
305.65 K, x1 = 0.6711 | – | 1681.8
305.65 K, x1 = 0.7797 | – | 1700.1
305.65 K, x1 = 0.8297 | – | 1753.7
305.65 K, x1 = 0.9328 | – | 1750.5
305.65 K, x1 = 1 | – | 1773.4
308.15 K, x1 = 0.0492 | 832.793 | 1153.3
308.15 K, x1 = 0.0951 | 875.068 | 1217
308.15 K, x1 = 0.1987 | 943.548 | 1334
308.15 K, x1 = 0.29 | 988.497 | 1422.7
308.15 K, x1 = 0.3786 | 1021.52 | 1494
308.15 K, x1 = 0.4825 | 1053.6 | 1569.6
308.15 K, x1 = 0.6007 | 1081.57 | 1639.2
308.15 K, x1 = 0.6711 | 1095.97 | 1675.9
308.15 K, x1 = 0.7797 | 1114.95 | 1694.5
308.15 K, x1 = 0.8297 | 1122.74 | 1748
308.15 K, x1 = 0.9328 | 1136.52 | 1744.9
308.15 K, x1 = 1 | 1143.39 | 1767.9
310.65 K, x1 = 0.0492 | 830.575 | 1145.6
310.65 K, x1 = 0.0951 | 872.975 | 1209.6
310.65 K, x1 = 0.1987 | 941.654 | 1327
310.65 K, x1 = 0.29 | 986.73 | 1416
310.65 K, x1 = 0.3786 | 1019.84 | 1487.6
310.65 K, x1 = 0.4825 | 1052.01 | 1563.5
310.65 K, x1 = 0.6007 | 1080.07 | 1633.3
310.65 K, x1 = 0.6711 | 1094.53 | 1670.1
310.65 K, x1 = 0.7797 | 1113.51 | 1689
310.65 K, x1 = 0.8297 | 1121.32 | 1742.3
310.65 K, x1 = 0.9328 | 1135.08 | 1739.3
310.65 K, x1 = 1 | 1141.96 | 1762.5
313.15 K, x1 = 0.0492 | 828.348 | 1137.8
313.15 K, x1 = 0.0951 | 870.876 | 1202.1
313.15 K, x1 = 0.1987 | 939.757 | 1320
313.15 K, x1 = 0.29 | 984.961 | 1409.3
313.15 K, x1 = 0.3786 | 1018.17 | 1481.3
313.15 K, x1 = 0.4825 | 1050.42 | 1557.5
313.15 K, x1 = 0.6007 | 1078.57 | 1627.4
313.15 K, x1 = 0.6711 | 1093.07 | 1664.3
313.15 K, x1 = 0.7797 | 1112.05 | 1683.4
313.15 K, x1 = 0.8297 | 1119.91 | 1736.7
313.15 K, x1 = 0.9328 | 1133.64 | 1733.8
313.15 K, x1 = 1 | 1140.55 | 1757.2
315.65 K, x1 = 0.0492 | 826.113 | 1130.1
315.65 K, x1 = 0.0951 | 868.768 | 1194.7
315.65 K, x1 = 0.1987 | 937.855 | 1313.1
315.65 K, x1 = 0.29 | 983.188 | 1402.7
315.65 K, x1 = 0.3786 | 1016.49 | 1475
315.65 K, x1 = 0.4825 | 1048.81 | 1551.4
315.65 K, x1 = 0.6007 | 1077.07 | 1621.4
315.65 K, x1 = 0.6711 | 1091.61 | 1658.5
315.65 K, x1 = 0.7797 | 1110.6 | 1678
315.65 K, x1 = 0.8297 | 1118.54 | 1731.2
315.65 K, x1 = 0.9328 | 1132.26 | 1728.4
315.65 K, x1 = 1 | 1139.18 | 1751.9
318.15 K, x1 = 0.0492 | 823.867 | 1122.4
318.15 K, x1 = 0.0951 | 866.652 | 1187.2
318.15 K, x1 = 0.1987 | 935.943 | 1306
318.15 K, x1 = 0.29 | 981.405 | 1396.1
318.15 K, x1 = 0.3786 | 1014.8 | 1468.6
318.15 K, x1 = 0.4825 | 1047.21 | 1545.3
318.15 K, x1 = 0.6007 | 1075.56 | 1615.5
318.15 K, x1 = 0.6711 | 1090.14 | 1652.7
318.15 K, x1 = 0.7797 | 1109.14 | 1672.5
318.15 K, x1 = 0.8297 | 1117.15 | 1725.7
318.15 K, x1 = 0.9328 | 1130.88 | 1723
318.15 K, x1 = 1 | 1137.82 | 1746.5
320.65 K, x1 = 0.0492 | 821.611 | 1114.8
320.65 K, x1 = 0.0951 | 864.531 | 1179.8
320.65 K, x1 = 0.1987 | 934.029 | 1299.1
320.65 K, x1 = 0.29 | 979.623 | 1389.4
320.65 K, x1 = 0.3786 | 1013.12 | 1462.3
320.65 K, x1 = 0.4825 | 1045.59 | 1539.3
320.65 K, x1 = 0.6007 | 1074.05 | 1609.6
320.65 K, x1 = 0.6711 | 1088.66 | 1646.9
320.65 K, x1 = 0.7797 | 1107.66 | 1667
320.65 K, x1 = 0.8297 | 1115.77 | 1720.2
320.65 K, x1 = 0.9328 | 1129.49 | 1717.6
320.65 K, x1 = 1 | 1136.45 | 1741.3
323.15 K, x1 = 0.0492 | 819.344 | 1107
323.15 K, x1 = 0.0951 | 862.394 | 1172.3
323.15 K, x1 = 0.1987 | 932.105 | 1292.1
323.15 K, x1 = 0.29 | 977.831 | 1382.7
323.15 K, x1 = 0.3786 | 1011.42 | 1455.9
323.15 K, x1 = 0.4825 | 1043.94 | 1533.2
323.15 K, x1 = 0.6007 | 1072.54 | 1603.7
323.15 K, x1 = 0.6711 | 1087.18 | 1641.1
323.15 K, x1 = 0.7797 | 1106.19 | 1661.7
323.15 K, x1 = 0.8297 | 1114.37 | 1714.7
323.15 K, x1 = 0.9328 | 1128.1 | 1712.3
323.15 K, x1 = 1 | 1135.08 | 1736
